# Experimental data: patent US20170166598A1, “HETEROARYL COMPOUNDS FOR KINASE INHIBITION” (ARIAD PHARMACEUTICALS, INC., priority 2014, published 2017)
# How the values were obtained:
# Format in all cases: cell-based
# [1] = target: T1, human EGFR E746-A750 deletion and T790M Mutation (Homo sapiens, UniProt P00533, DEL746-750/T790M); test: Ba/F3-EGFR-Del/T790M cell anti-proliferative assay (CellTiter 96 MTS, 72 h); details: Ba/F3-EGFR-Del/T790M cells
# T1 construct: expressed in transfected cells; host or cells: Ba/F3 (murine pro-B) cells transduced with lentivirus from pLVX-IRES puro
# Summary of the method: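 Compound exposure: 72 h, 37 °C, 4-fold series topping at 10,000 nM. Target cells are Ba/F3 transduced with EGFR exon 19 deletion plus T790M, selected by puromycin and IL-3 withdrawal. Viable cell number inferred from MTS metabolic conversion, A490 read 2 h after reagent addition.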
# [2] = target: T2, Her2 exon 20 YVMA insertion (A775_G776ins YVMA) (Homo sapiens, UniProt P04626, INS775YVMA); test: Ba/F3-Her2 Exon20 YVMA cell anti-proliferative assay (CellTiter 96 MTS, 72 h); details: Ba/F3-Her2 Exon20 YVMA cells
# T2 construct: expressed in transfected cells; host or cells: Ba/F3 (murine pro-B) cells transduced with lentivirus from pLVX-IRES puro
# Summary of the method: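 Anti-proliferation: compound series (top 10,000 nM, 4-fold steps) was applied to Ba/F3-Her2 Exon20 YVMA cells grown without IL-3 for 72 h. Viability was read colorimetrically (CellTiter 96 Aqueous One, A490, 2 h reagent incubation).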
# [3] = target: T3, human EGFR exon 20 insertion NPG (H773_V774insNPG) (Homo sapiens, UniProt P00533, INS772GNP); test: Ba/F3-EGFR-Exon20-NPG cell anti-proliferative assay (CellTiter 96 MTS, 72 h); details: Ba/F3-EGFR-Exon20-NPG cells
# T3 construct: expressed in transfected cells; host or cells: Ba/F3 (murine pro-B) cells transduced with lentivirus from pLVX-IRES puro
# Summary of the method: (§1)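 Viable-cell readout used absorbance at 490 nm of MTS-derived formazan, 2 h after reagent addition, following 72 h compound treatment at 37 °C, 5% CO2. Cells: puromycin-selected, IL-3-depleted Ba/F3 expressing EGFR exon 20 ASV or NPG; dosing 4-fold series from 10,000 nM.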
# [4] = target: T4, human EGFR L858R and T790M double mutation (Homo sapiens, UniProt P00533, L858R/T790M); test: Ba/F3-EGFR L858R/T790M cell anti-proliferative assay (CellTiter 96 MTS, 72 h); details: Ba/F3-EGFR L858R/T790M cells
# T4 construct: expressed in transfected cells; host or cells: Ba/F3 (murine pro-B) cells transduced with lentivirus from pLVX-IRES puro
# Description: An expression vector, pLVX-IRES puro (Clontech) coding for human EGFR L858R and T790M double mutation, was transfected into HEK293 cells by the Trans-Lentiviral ORF Packaging System (Thermo Scientific), to produce virus encoding EGFR L858R and T790M double mutations. Ba/F3 (DSMZ) cells maintained in RPMI 1640 medium supplemented with 10% fetal bovine serum, 200 μM L-glutamine/l 200 μg/mL penicillin/200 μg/mL streptomycin (Life Technology) and 10 ng/mL IL-3 (R&D system), were infected by EGFR L858R and T790M double mutation virus and subsequently selected by puromycin (Life Technology) selection and IL-3 depletion. […] The anti-proliferative activity of compounds was determined as follows: BaF3-EGFR L858R/T790M cells seeded in 96 well plates (2500 cells/well) were treated with test compound (dissolved in DMSO) at a series of concentrations (4-fold dilution, top concentration: 10,000 nM). The plates were incubated for 72 h in a 37° C. incubator with 5% CO2, and the number of viable cells in each well were measured indirectly by CellTiter 96® Aqueous One Solution Cell Proliferation Assay (Promega; this assay is a colorimetric method for determining the number of viable cells through measurement of their metabolic activity by detection of enzymatic conversion of tetrazolium salts into blue formazan derivatives). Reagent (20 μL) was added into each well, and the plates were returned to the incubator for 2 h. The absorbance in each well was then measured at 490 nm using an Envision plate reader (Perkin Elmer).
# [5] = target: T5, human EGFR exon 20 insertion ASV (V769_D770insASV) (Homo sapiens, UniProt P00533, INS769ASV); test: Ba/F3-EGFR-Exon20-ASV cell anti-proliferative assay (CellTiter 96 MTS, 72 h); details: Ba/F3-EGFR-Exon20-ASV cells
# T5 construct: expressed in transfected cells; host or cells: Ba/F3 (murine pro-B) cells transduced with lentivirus from pLVX-IRES puro
# Summary of the method: as §1
# T4 sequence (P00533 25-1210 T790M/L858R): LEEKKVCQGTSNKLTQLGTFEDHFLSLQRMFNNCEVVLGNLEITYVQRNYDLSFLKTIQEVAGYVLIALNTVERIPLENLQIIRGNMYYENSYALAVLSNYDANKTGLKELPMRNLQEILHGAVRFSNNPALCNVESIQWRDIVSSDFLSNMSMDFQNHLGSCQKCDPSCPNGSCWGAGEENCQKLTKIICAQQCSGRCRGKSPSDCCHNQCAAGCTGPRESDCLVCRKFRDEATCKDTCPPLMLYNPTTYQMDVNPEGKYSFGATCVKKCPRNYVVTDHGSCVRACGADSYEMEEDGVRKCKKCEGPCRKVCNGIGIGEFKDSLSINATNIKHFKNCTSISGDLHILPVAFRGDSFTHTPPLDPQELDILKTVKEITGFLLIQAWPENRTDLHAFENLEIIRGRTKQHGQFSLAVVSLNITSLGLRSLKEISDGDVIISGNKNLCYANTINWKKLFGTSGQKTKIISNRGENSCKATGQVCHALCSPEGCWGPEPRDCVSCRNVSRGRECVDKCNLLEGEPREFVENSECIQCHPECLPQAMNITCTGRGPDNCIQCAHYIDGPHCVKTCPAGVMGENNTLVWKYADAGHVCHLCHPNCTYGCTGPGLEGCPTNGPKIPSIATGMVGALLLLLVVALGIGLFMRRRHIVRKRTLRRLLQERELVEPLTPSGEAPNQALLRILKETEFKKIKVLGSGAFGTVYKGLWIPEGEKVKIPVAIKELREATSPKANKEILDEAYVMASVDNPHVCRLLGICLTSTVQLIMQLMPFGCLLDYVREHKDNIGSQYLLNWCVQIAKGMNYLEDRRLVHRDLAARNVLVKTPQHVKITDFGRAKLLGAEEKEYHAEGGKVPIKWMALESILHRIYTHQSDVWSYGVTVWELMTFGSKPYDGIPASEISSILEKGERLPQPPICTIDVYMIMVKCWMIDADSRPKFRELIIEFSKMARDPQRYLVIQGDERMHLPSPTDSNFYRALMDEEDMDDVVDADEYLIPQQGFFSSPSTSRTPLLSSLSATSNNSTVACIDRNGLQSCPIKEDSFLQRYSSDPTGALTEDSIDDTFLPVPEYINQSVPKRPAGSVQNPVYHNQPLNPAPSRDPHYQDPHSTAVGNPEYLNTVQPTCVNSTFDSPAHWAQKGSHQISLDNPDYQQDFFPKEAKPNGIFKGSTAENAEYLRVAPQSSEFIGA
# T3 sequence (P00533 with tags, fused parts or gaps INS772GNP): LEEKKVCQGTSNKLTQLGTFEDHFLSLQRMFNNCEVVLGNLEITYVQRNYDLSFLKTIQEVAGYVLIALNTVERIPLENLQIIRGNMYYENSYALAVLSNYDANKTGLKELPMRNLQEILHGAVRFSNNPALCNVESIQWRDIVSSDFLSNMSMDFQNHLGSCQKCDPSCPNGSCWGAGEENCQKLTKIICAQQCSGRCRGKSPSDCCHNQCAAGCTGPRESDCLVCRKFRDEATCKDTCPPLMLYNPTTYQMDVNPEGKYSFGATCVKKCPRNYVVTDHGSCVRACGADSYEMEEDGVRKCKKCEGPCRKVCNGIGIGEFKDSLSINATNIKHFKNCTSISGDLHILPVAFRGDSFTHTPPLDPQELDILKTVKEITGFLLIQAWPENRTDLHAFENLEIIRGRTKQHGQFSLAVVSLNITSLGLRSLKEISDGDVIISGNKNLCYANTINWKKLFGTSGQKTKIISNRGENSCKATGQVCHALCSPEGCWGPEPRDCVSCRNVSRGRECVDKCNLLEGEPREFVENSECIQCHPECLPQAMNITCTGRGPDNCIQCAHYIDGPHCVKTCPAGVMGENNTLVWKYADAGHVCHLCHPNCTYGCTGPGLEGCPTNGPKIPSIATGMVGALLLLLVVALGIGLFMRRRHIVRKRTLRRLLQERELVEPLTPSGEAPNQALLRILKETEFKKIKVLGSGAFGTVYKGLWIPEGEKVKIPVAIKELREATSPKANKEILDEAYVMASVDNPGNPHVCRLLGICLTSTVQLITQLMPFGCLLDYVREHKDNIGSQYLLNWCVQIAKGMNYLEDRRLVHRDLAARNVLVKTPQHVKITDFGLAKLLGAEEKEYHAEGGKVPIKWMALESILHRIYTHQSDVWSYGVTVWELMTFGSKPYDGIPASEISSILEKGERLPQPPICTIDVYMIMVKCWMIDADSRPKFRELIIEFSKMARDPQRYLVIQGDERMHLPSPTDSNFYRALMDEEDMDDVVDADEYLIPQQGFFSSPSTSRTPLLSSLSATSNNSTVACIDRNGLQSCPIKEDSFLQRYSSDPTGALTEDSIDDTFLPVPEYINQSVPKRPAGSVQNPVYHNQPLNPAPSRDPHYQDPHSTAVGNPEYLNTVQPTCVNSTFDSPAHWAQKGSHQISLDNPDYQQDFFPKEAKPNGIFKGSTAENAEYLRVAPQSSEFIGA
# T5 sequence (P00533 with tags, fused parts or gaps INS769ASV): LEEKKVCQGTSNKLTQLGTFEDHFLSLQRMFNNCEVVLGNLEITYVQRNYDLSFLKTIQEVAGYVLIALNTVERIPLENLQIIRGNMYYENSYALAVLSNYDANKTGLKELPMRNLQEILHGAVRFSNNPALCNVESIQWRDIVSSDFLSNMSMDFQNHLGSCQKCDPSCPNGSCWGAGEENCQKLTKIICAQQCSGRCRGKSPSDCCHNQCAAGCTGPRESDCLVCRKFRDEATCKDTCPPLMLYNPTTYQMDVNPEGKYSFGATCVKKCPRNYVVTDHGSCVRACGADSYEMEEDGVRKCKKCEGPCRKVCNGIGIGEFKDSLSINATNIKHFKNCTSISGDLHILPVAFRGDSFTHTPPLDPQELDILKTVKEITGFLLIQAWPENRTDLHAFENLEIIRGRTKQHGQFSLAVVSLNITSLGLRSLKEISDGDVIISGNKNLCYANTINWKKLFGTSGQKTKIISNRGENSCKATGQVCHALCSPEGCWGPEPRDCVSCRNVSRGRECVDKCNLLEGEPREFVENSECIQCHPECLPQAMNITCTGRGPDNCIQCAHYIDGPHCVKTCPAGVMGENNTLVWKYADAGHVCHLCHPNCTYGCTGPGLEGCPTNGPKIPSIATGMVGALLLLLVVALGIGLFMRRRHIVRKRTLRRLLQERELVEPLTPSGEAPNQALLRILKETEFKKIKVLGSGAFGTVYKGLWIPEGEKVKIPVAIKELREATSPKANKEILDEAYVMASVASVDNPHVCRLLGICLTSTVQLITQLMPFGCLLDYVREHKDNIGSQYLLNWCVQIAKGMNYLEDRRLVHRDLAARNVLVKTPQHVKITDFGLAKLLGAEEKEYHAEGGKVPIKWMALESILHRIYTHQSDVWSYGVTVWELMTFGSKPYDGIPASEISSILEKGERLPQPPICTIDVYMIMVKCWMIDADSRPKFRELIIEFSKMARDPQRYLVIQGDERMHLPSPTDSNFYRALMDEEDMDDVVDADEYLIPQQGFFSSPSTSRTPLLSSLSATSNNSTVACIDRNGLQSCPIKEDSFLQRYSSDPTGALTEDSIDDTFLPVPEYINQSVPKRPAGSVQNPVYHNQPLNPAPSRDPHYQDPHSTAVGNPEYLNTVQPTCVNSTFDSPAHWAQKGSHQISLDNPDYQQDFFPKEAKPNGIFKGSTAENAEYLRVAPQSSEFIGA
# T2 sequence (P04626 with tags, fused parts or gaps INS775YVMA): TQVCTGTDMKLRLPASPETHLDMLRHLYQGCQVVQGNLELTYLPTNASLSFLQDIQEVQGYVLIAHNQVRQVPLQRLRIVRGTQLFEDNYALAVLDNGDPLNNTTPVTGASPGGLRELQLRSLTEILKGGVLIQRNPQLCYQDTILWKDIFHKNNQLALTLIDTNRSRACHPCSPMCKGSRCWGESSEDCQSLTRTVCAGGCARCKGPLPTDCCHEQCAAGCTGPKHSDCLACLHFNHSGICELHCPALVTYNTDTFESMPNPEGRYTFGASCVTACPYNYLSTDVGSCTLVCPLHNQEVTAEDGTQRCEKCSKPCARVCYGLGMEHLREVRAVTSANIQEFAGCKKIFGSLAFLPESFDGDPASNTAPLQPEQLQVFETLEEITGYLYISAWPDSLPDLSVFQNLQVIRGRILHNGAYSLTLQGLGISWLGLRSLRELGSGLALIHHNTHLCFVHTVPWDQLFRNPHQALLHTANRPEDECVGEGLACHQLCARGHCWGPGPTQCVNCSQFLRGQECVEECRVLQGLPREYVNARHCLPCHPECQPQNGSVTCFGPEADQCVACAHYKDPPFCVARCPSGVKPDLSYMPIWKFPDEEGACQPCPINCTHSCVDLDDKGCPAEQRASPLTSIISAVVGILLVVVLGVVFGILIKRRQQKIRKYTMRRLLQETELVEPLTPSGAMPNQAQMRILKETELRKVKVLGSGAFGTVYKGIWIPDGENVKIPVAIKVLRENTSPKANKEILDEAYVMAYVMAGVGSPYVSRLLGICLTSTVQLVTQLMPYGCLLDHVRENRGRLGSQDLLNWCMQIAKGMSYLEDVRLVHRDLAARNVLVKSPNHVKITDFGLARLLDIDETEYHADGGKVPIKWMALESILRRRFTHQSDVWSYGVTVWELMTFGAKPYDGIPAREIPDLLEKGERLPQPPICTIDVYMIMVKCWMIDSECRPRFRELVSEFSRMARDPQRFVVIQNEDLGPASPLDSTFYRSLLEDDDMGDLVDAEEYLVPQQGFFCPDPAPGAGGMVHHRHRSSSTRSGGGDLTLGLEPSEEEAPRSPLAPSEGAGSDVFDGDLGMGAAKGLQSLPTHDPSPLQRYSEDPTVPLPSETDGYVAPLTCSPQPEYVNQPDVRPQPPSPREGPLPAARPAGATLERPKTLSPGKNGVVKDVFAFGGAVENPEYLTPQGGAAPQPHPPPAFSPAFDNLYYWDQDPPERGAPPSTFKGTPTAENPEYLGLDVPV
IC50 [2],IC50 [3],IC50 [5],Compound,EGFR exon 19 deletion and exon 20 T790M mutation IC50 [1],EGFR exon 21 L858R and exon 20 T790M mutation IC50 [4]
100 to 500 nM,< 100 nM,< 100 nM,"C=CC(=O)Nc1cc(Nc2ncc(CC)c(-c3cn4c5c(cccc35)OCC4)n2)c(OC)cc1N(C)CCN(C)C [Example 1, N-(5-((4-(2,3-dihydro-[1,4]oxazino[2,3,4-hi]indol-6-yl)-5-ethylpyrimidin-2-yl)amino)-2-((2-(dimethylamino)ethyl)(methyl)amino)-4-methoxyphenyl)acrylamide]",A (IC50 value for the indicated mutant below about 100 nM),A (IC50 value for the indicated mutant below about 100 nM)
< 100 nM,< 100 nM,< 100 nM,"C=CC(=O)Nc1cc(Nc2ncc(C#N)c(-c3cn4c5c(cccc35)OCC4)n2)c(OC)cc1N(C)CCN(C)C [Example 4, N-(5-((5-cyano-4-(2,3-dihydro-[1,4]oxazino[2,3,4-hi]indol-6-yl)pyrimidin-2-yl)amino)-2-((2-(dimethylamino)ethyl)(methyl)amino)-4-methoxyphenyl)acrylamide]",A (IC50 value for the indicated mutant below about 100 nM),A (IC50 value for the indicated mutant below about 100 nM)
100 to 500 nM,< 100 nM,100 to 500 nM,"C=CC(=O)Nc1cc(Nc2nccc(-c3cn4c5c(cccc35)CCC4)n2)c(OC)cc1N(C)CCN(C)C [Example 10, N-(5-((4-(5,6-dihydro-4H-pyrrolo[3,2,1-ij]quinolin-1-yl)pyrimidin-2-yl)amino)-2-((2-(dimethylamino)ethyl)(methyl)amino)-4-methoxyphenyl)acrylamide]",A (IC50 value for the indicated mutant below about 100 nM),A (IC50 value for the indicated mutant below about 100 nM)
100 to 500 nM,< 100 nM,< 100 nM,"C=CC(=O)Nc1cc(Nc2ncc(Cl)c(-c3cn4c5c(cccc35)CCC4)n2)c(OC)cc1N(C)CCN(C)C [Example 11, N-(5-((5-chloro-4-(5,6-dihydro-4H-pyrrolo[3,2,1-ij]quinolin-1-yl)pyrimidin-2-yl)amino)-2-((2-(dimethylamino)ethyl)(methyl)amino)-4-methoxyphenyl)acrylamide]",A (IC50 value for the indicated mutant below about 100 nM),A (IC50 value for the indicated mutant below about 100 nM)
100 to 500 nM,< 100 nM,,"C=CC(=O)Nc1cc(Nc2ncc(Cl)c(-c3cn4c5c(cccc35)CCC4)n2)c(Cl)cc1N(C)CCN(C)C [Example 12, N-(4-chloro-5-((5-chloro-4-(5,6-dihydro-4H-pyrrolo[3,2,1-ij]quinolin-1-yl)pyrimidin-2-yl)amino)-2-((2-(dimethylamino)ethyl)(methyl)amino)phenyl)acrylamide]",A (IC50 value for the indicated mutant below about 100 nM),A (IC50 value for the indicated mutant below about 100 nM)
< 100 nM,> 1000 nM,< 100 nM,"C=CC(=O)Nc1cc(Nc2ncc(C#N)c(-c3cn4c5c(cccc35)CCC4)n2)c(OC)cc1N(C)CCN(C)C [Example 14, N-(5-((5-cyano-4-(5,6-dihydro-4H-pyrrolo[3,2,1-ij]quinolin-1-yl)pyrimidin-2-yl)amino)-2-((2-(dimethylamino)ethyl)(methyl)amino)-4-methoxyphenyl)acrylamide]",A (IC50 value for the indicated mutant below about 100 nM),A (IC50 value for the indicated mutant below about 100 nM)
100 to 500 nM,100 to 500 nM,,"C=CC(=O)Nc1cc(Nc2ncc(Cl)c(-c3cn4c5c(cccc35)CCC4)n2)c(OC)cc1O[C@H](COCC)CN(C)C [Example 23, (S)-N-(5-((5-chloro-4-(5,6-dihydro-4H-pyrrolo[3,2,1-ij]quinolin-1-yl)pyrimidin-2-yl)amino)-2-((1-(dimethylamino)-3-ethoxypropan-2-yl)oxy)-4-methoxyphenyl)acrylamide]",A (IC50 value for the indicated mutant below about 100 nM),A (IC50 value for the indicated mutant below about 100 nM)
100 to 500 nM,< 100 nM,,"C=CC(=O)Nc1cc(Nc2ncc(Cl)c(-c3cn4c5c(cccc35)OCC4)n2)c(OC)cc1O[C@@H](COCC)CN(C)C [Example 80, (R)-N-(5-((5-chloro-4-(2,3-dihydro-[1,4]oxazino[2,3,4-hi]indol-6-yl)pyrimidin-2-yl)amino)-2-((1-(dimethylamino)-3-ethoxypropan-2-yl)oxy)-4-methoxyphenyl)acrylamide]",A (IC50 value for the indicated mutant below about 100 nM),A (IC50 value for the indicated mutant below about 100 nM)
100 to 500 nM,< 100 nM,,"C=CC(=O)Nc1cc(Nc2ncc(Cl)c(-c3cn4c5c(cccc35)OCC4)n2)c(OC)cc1O[C@H](COCC)CN(C)C [Example 81, (S)-N-(5-((5-chloro-4-(2,3-dihydro-[1,4]oxazino[2,3,4-hi]indol-6-yl)pyrimidin-2-yl)amino)-2-((1-(dimethylamino)-3-ethoxypropan-2-yl)oxy)-4-methoxyphenyl)acrylamide]",A (IC50 value for the indicated mutant below about 100 nM),A (IC50 value for the indicated mutant below about 100 nM)
500 to 1000 nM,100 to 500 nM,100 to 500 nM,C=CC(=O)Nc1cc(Nc2ncc(N3CCCC3)c(-c3cn4c5c(cccc35)CCC4)n2)c(OC)cc1N(C)CCN(C)C [Example 106],A (IC50 value for the indicated mutant below about 100 nM),
> 1000 nM,< 100 nM,100 to 500 nM,C=CC(=O)Nc1cc(Nc2ncc(-c3ncccn3)c(-c3cn4c5c(cccc35)CCC4)n2)c(OC)cc1N(C)CCN(C)C [Example 108],B (IC50 value for the indicated mutant between about 100 to about 500 nM),
> 1000 nM,100 to 500 nM,> 1000 nM,C=CC(=O)Nc1cc(Nc2nccc(-c3c(-c4ncccn4)n4c5c(cccc35)CCC4)n2)c(OC)cc1N(C)CCN(C)C [Example 109],B (IC50 value for the indicated mutant between about 100 to about 500 nM),
> 1000 nM,< 100 nM,100 to 500 nM,C=CC(=O)Nc1cc(Nc2nccc(-c3c(-c4ncnn4C)n4c5c(cccc35)CCC4)n2)c(OC)cc1N(C)CCN(C)C [Example 110],A (IC50 value for the indicated mutant below about 100 nM),
100 to 500 nM,< 100 nM,< 100 nM,C=CC(=O)Nc1cc(Nc2ncc(-c3ncnn3C)c(-c3cn4c5c(cccc35)CCC4)n2)c(OC)cc1N(C)CCN(C)C [Example 111],A (IC50 value for the indicated mutant below about 100 nM),
